# In BindingDB's records for doi:10.1016/j.bmc.2011.10.064 (Saitama University, 2011):
# Legend:
# [1] = Inhibition of Human influenza virus A/Aichi/2/68 (H3N2) hemagglutininin activity in chicken erythrocytes after 1 hr
# [2] = Inhibition of Human influenza virus A/PR/8/34 (H1N1) hemagglutininin activity in chicken erythrocytes after 1 hr
smiles,measurement,setting,value
C=CC(=O)N[C@H]1[C@H]([C@H](O)[C@H](O)CO)O[C@@](SCCCCCCCCCCCC)(C(=O)O)C[C@@H]1O,IC50,[1],3.9 µM
same,IC50,[2],7.81 µM
C=CC(=O)NCCCCCC(=O)N[C@H]1[C@H]([C@H](O)[C@H](O)CO)O[C@@](SCCCCCCCCCCCC)(C(=O)O)C[C@@H]1O,IC50,[1],7.81 µM
same,IC50,[2],7.81 µM
C=CC(=O)N[C@H]1[C@H]([C@H](O)[C@H](O)CO)OC(O)(C(=O)O)C[C@@H]1O (stereo partly specified),IC50,[1],> 250 µM
same,IC50,[2],> 250 µM
